Values quoted from earlier work, collected in US20210274780A1, “Disinfectant Composition Against the Novel Wuhan Corona Virus COVID-19” (priority 2020, published 2021).

What was measured:
[1] = test system: polioviruses
[2] = test system: adenoviruses
[3] = test system: Gram-positive bacteria

[H]/N=C(\N/C(=N/[H])NCCCCCCNC(=N)NC(=N)Nc1ccc(Cl)cc1)Nc1ccc(Cl)cc1 [Chlorhexidine]
effectiveness against polioviruses [1]: ineffective
effectiveness against adenoviruses [2]: ineffective
effective concentration [3]: ≥ 1 µg/L
